“Also recorded” adds a separate entry of the source.
target: AChE (Electrophorus electricus, UniProt O42275); assay: Kinetics study of AChE inhibition (Lineweaver-Burk plots); assay type: biochemical; conditions: inhibitor at 0.32, 0.64, 1.27 μM, substrate ATCh
Procedure: The inhibition model of acetylcholinesterase can be categorized into irreversible-type inhibition and reversible-type inhibition. […]. The type of inhibition can be concluded with a graphical analysis of the Lineweaver-Burk reciprocal plots ([Baharloo et al., 2015]).
[…]. The experiment was assayed in triplicate.

Sequence of AChE (O42275 24-633): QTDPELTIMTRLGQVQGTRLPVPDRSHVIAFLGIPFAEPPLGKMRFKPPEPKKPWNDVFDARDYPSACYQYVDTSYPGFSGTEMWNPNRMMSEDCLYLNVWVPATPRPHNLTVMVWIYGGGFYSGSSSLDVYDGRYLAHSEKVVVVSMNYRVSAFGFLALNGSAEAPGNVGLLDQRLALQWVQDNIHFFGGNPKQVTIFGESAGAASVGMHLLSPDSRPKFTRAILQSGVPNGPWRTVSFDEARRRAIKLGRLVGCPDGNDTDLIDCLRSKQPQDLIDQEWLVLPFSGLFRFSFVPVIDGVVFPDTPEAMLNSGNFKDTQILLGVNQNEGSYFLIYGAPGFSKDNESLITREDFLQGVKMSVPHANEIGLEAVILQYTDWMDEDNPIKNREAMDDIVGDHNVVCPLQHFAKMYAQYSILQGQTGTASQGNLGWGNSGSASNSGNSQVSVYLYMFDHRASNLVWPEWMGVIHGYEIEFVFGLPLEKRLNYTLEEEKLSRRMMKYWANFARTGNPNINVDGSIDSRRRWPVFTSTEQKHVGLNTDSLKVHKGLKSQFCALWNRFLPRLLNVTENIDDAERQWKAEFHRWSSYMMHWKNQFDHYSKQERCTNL

| Structure (SMILES) | Type of inhibition on AChE |
| --- | --- |
| Nc1c(-c2cc[n+](Cc3ccccc3F)cc2)oc2ccccc12.[Cl-] [5f, 4-(3-Aminobenzofuran-2-yl)-1-(2-fluorobenzyl) pyridin-1-ium chloride] | mixed-type inhibition; also recorded: mixed-type inhibitory pattern |

target: T1, Aβ1–42 and human recombinant AChE (Homo sapiens, UniProt P22303); assay: Inhibition of AChE-induced Aβ1–42 aggregation (thioflavin T assay); assay type: biochemical; conditions: read-out: Inhibition of Aβ aggregation (%) AChE-induced
T1 construct: Aβ1–42 (Sigma A9810); purchased Sigma C1682 (AChE); A9810 (Aβ1–42)
T1 sequence (P22303 32-614): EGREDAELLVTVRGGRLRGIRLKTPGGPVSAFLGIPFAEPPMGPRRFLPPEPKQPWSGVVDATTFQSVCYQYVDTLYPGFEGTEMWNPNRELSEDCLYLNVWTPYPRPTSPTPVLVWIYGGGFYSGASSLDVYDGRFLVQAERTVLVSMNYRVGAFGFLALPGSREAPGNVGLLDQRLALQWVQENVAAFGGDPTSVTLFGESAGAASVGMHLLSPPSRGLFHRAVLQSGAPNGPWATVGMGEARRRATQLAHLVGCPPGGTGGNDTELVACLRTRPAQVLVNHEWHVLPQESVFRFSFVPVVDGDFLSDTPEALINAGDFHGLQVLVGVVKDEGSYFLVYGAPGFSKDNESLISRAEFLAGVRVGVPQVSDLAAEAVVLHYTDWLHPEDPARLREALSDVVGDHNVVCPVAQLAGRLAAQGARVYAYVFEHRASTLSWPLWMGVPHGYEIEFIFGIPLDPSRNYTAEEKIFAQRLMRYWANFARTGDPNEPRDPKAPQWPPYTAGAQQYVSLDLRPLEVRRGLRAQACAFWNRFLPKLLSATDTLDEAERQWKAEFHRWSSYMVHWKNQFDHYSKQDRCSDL
Procedure: (§1) For this purpose, we used the thioflavin T (ThT) assay.
(§2) Aβ1–42 (Sigma A9810) 50 μM was dissolved in ammonium hydroxide (1% v/v) for pre-fibrillation and incubated for 72 h at 37°C. […] Next, 50 μl of thioflavin T (ThT, 200 μM) containing 50 mM glycine-NaOH buffer (pH 8.5) was added. […] The aggregation inhibition of the tested compounds was calculated on AChE or self-induced Aβ-aggregation according to the equation (1−IFi/IFc) × 100, where IFi and IFc are the fluorescence intensities in the presence of inhibitors and in the absence of inhibitors, respectively.

| Structure (SMILES) | inhibition at 100 µM [%] |
| --- | --- |
| Nc1c(-c2cc[n+](Cc3ccccc3)cc2)oc2ccccc12 [5a, 4-(3-Aminobenzofuran-2-yl)-1-benzylpyridin-1-ium chloride] | 22.4 ± 1.6 |
| Nc1c(-c2cc[n+](Cc3ccccc3F)cc2)oc2ccccc12.[Cl-] [5f, 4-(3-Aminobenzofuran-2-yl)-1-(2-fluorobenzyl) pyridin-1-ium chloride] | 30.1 ± 1.9 |
| Nc1c(-c2cc[n+](Cc3ccc(F)cc3)cc2)oc2ccccc12.[Cl-] [5h, 4-(3-Aminobenzofuran-2-yl)-1-(4-fluorobenzyl) pyridin-1-ium chloride] | 35.6 ± 1.5 |
| Nc1c(-c2cc[n+](Cc3ccccc3Cl)cc2)oc2ccccc12 [5i, 4-(3-Aminobenzofuran-2-yl)-1-(2-chlorobenzyl) pyridin-1-ium chloride] | 26.5 ± 3.8 |
| Nc1c(-c2cc[n+](Cc3ccccc3Br)cc2)oc2ccccc12 [5l, 4-(3-Aminobenzofuran-2-yl)-1-(2-bromobenzyl) pyridin-1-ium chloride] | 22.4 ± 2.3 |

target: T2, horse serum BuChE (eqBuChE) (Equus caballus, UniProt P81908); assay: biochemical; conditions: Ellman's method, 25°C, mean ± SEM of three experiments
T2 construct: horse serum BuChE (eqBuChE, Sigma-Aldrich); purchased Sigma-Aldrich; host or cells: horse serum
T2 sequence (P81908 whole entry): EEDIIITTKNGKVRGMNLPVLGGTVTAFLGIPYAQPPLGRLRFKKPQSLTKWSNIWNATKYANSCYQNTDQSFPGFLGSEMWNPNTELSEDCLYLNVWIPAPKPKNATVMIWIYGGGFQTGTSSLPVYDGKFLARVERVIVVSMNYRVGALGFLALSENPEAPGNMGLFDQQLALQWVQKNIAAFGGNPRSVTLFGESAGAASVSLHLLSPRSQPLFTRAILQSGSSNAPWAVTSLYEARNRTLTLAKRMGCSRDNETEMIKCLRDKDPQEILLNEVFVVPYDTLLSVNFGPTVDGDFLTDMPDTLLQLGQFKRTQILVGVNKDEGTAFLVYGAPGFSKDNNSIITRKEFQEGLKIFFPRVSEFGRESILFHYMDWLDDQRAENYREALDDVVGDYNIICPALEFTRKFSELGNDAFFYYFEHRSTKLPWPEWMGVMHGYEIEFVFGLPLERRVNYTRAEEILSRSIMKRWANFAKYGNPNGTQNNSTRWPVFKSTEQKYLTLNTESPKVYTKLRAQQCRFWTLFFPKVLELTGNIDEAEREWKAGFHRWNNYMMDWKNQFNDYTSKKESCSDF
Procedure: This method is based on the reaction of acetylthiocholine with 5,5′´-dithio-bis-(2-nitrobenzoic) acid (DTNB) to yield the colored product.
AChE from E. electricus, and horse serum BuChE (eqBuChE, Sigma-Aldrich) 5,5-Dithiobis-(2-nitrobenzoic acid) (DTNB), and acetylthiocholine iodide (ATC) were purchased from Sigma Aldrich. […] In this procedure, five different concentrations of each compound were used at 25°C. […] For the in-vitro BuChE assay similar method has been used.

| Structure (SMILES) | IC50 [µM] |
| --- | --- |
| Nc1c(-c2cc[n+](Cc3ccccc3)cc2)oc2ccccc12 [5a, 4-(3-Aminobenzofuran-2-yl)-1-benzylpyridin-1-ium chloride] | 0.82 ± 0.07 |
| Cc1ccccc1C[n+]1ccc(-c2oc3ccccc3c2N)cc1 [5b, 4-(3-Aminobenzofuran-2-yl)-1-(2-methylbenzyl) pyridin-1-ium chloride] | 17.4 ± 2.45 |
| Cc1cccc(C[n+]2ccc(-c3oc4ccccc4c3N)cc2)c1 [5c, 4-(3-Aminobenzofuran-2-yl)-1-(3-methylbenzyl) pyridin-1-ium chloride] | 12.9 ± 3.56 |
| Cc1ccc(C[n+]2ccc(-c3oc4ccccc4c3N)cc2)cc1 [5d, 4-(3-Aminobenzofuran-2-yl)-1-(4-methylbenzyl) pyridin-1-ium chloride] | 25.3 ± 1.91 |
| COc1cccc(C[n+]2ccc(-c3oc4ccccc4c3N)cc2)c1 [5e, 4-(3-Aminobenzofuran-2-yl)-1-(3-methoxybenzyl) pyridin-1-ium chloride] | > 100 |
| Nc1c(-c2cc[n+](Cc3ccccc3F)cc2)oc2ccccc12.[Cl-] [5f, 4-(3-Aminobenzofuran-2-yl)-1-(2-fluorobenzyl) pyridin-1-ium chloride] | 0.55 ± 0.07 |
| Nc1c(-c2cc[n+](Cc3cccc(F)c3)cc2)oc2ccccc12 [5g, 4-(3-Aminobenzofuran-2-yl)-1-(3-fluorobenzyl) pyridin-1-ium chloride] | 2.89 ± 0.42 |
| Nc1c(-c2cc[n+](Cc3ccc(F)cc3)cc2)oc2ccccc12.[Cl-] [5h, 4-(3-Aminobenzofuran-2-yl)-1-(4-fluorobenzyl) pyridin-1-ium chloride] | 5.05 ± 0.73 |
| Nc1c(-c2cc[n+](Cc3ccccc3Cl)cc2)oc2ccccc12 [5i, 4-(3-Aminobenzofuran-2-yl)-1-(2-chlorobenzyl) pyridin-1-ium chloride] | 0.99 ± 0.05 |
| Nc1c(-c2cc[n+](Cc3cccc(Cl)c3)cc2)oc2ccccc12 [5j, 4-(3-Aminobenzofuran-2-yl)-1-(3-chlorobenzyl) pyridin-1-ium chloride] | 18.8 ± 1.11 |
| Nc1c(-c2cc[n+](Cc3ccc(Cl)cc3)cc2)oc2ccccc12 [5k, 4-(3-Aminobenzofuran-2-yl)-1-(4-chlorobenzyl) pyridin-1-ium chloride] | 31.2 ± 2.56 |
| Nc1c(-c2cc[n+](Cc3ccccc3Br)cc2)oc2ccccc12 [5l, 4-(3-Aminobenzofuran-2-yl)-1-(2-bromobenzyl) pyridin-1-ium chloride] | 10.5 ± 0.19 |
| Nc1c(-c2cc[n+](Cc3cccc(Br)c3)cc2)oc2ccccc12 [5m, 4-(3-Aminobenzofuran-2-yl)-1-(3-bromobenzyl) pyridin-1-ium chloride] | 13.9 ± 1.2 |
| Nc1c(-c2cc[n+](Cc3ccc(Br)cc3)cc2)oc2ccccc12 [5n, 4-(3-Aminobenzofuran-2-yl)-1-(4-bromobenzyl) pyridin-1-ium chloride] | 22.6 ± 3.33 |
| Nc1c(-c2cc[n+](Cc3ccccc3[N+](=O)[O-])cc2)oc2ccccc12 [5o, 4-(3-Aminobenzofuran-2-yl)-1-(2-nitrobenzyl) pyridin-1-ium chloride] | 28.63 ± 0.13 |
| Nc1c(-c2cc[n+](Cc3ccc([N+](=O)[O-])cc3)cc2)oc2ccccc12 [5p, 4-(3-Aminobenzofuran-2-yl)-1-(4-nitrobenzyl) pyridin-1-ium chloride] | 28.3 ± 0.48 |

target: T3, Aβ1–42 (Homo sapiens, UniProt P05067); assay: Inhibition of self-induced Aβ1–42 aggregation (thioflavin T assay); assay type: biochemical; conditions: 10 μM, ThT assay
T3 construct: Aβ1–42 (Sigma A9810); purchased Sigma A9810
T3 sequence (P05067 672-713 limits assumed): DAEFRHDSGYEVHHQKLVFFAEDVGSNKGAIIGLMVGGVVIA
Procedure: as §1, §2

| Structure (SMILES) | Effectiveness relative to donepezil in inhibition of self-induced Aβ aggregation |
| --- | --- |
| Nc1c(-c2cc[n+](Cc3ccccc3F)cc2)oc2ccccc12.[Cl-] [5f, 4-(3-Aminobenzofuran-2-yl)-1-(2-fluorobenzyl) pyridin-1-ium chloride] | about 2 fold |
| Nc1c(-c2cc[n+](Cc3ccc(F)cc3)cc2)oc2ccccc12.[Cl-] [5h, 4-(3-Aminobenzofuran-2-yl)-1-(4-fluorobenzyl) pyridin-1-ium chloride] | about 2 fold |

same assay, conditions: compound at 10 μM, ThT assay, mean ± SEM of three experiments; read-out: Inhibition of Aβ aggregation (%) Self-induced

| Structure (SMILES) | inhibition at 10 µM [%] |
| --- | --- |
| Nc1c(-c2cc[n+](Cc3ccccc3)cc2)oc2ccccc12 [5a, 4-(3-Aminobenzofuran-2-yl)-1-benzylpyridin-1-ium chloride] | 17.6 ± 3.8 |
| Nc1c(-c2cc[n+](Cc3ccccc3F)cc2)oc2ccccc12.[Cl-] [5f, 4-(3-Aminobenzofuran-2-yl)-1-(2-fluorobenzyl) pyridin-1-ium chloride] | 29.8 ± 1.8 |
| Nc1c(-c2cc[n+](Cc3ccc(F)cc3)cc2)oc2ccccc12.[Cl-] [5h, 4-(3-Aminobenzofuran-2-yl)-1-(4-fluorobenzyl) pyridin-1-ium chloride] | 38.8 ± 2.8 |
| Nc1c(-c2cc[n+](Cc3ccccc3Cl)cc2)oc2ccccc12 [5i, 4-(3-Aminobenzofuran-2-yl)-1-(2-chlorobenzyl) pyridin-1-ium chloride] | 24.8 ± 1.5 |
| Nc1c(-c2cc[n+](Cc3ccccc3Br)cc2)oc2ccccc12 [5l, 4-(3-Aminobenzofuran-2-yl)-1-(2-bromobenzyl) pyridin-1-ium chloride] | 25.7 ± 2.7 |

same assay, conditions: read-out: Inhibition of Aβ aggregation (%) Self-induced

| Structure (SMILES) | inhibition at 10 µM [%] |
| --- | --- |
| COc1cc2c(cc1OC)C(=O)C(CC1CCN(Cc3ccccc3)CC1)C2 (stereo not drawn) [Donepezil, reference compound] | 14.9 ± 2.5 |

test system: not listed separately; assay: Cell viability assay (MTT) in PC12 cells; assay type: cell-based; conditions: rat
Procedure: Safety is an important factor for CNS agents. In order to evaluate the cytotoxic effect of selected compounds 5a, 5f, 5h, 5i, and 5l, the in-vitro cell viability assay was investigated on the PC12 cell line using the MTT (3-(4,5-dimethylthiazol-2-yl)-2,5-diphenyltetrazolium bromide) assay. The PC12 cells were incubated with varying concentrations (0.01–100 μM) of the test compounds for 24 h. […] The results are expressed as the percentage of viable cells.
In order to evaluate cell viability of 5a, 5f, 5h, 5i, and 5l, the 3-(4,5-dimethylthiazol-2-yl)-2,5-diphenyl tetrazolium bromide (MTT) assay was performed using PC12 cell line. Cells were seeded in 96-well plates at a density of 5,000 cells/well for 24 h, and then cells were treated with tested compounds and glutamate (5 mM) and incubated at 37°C for 24 h. After that, the medium was removed and 20 μl of the MTT reagent (5 mg/ml) was added and incubated at 37 °C for 4 h. Then, the medium was replaced with 150 μl DMSO to solve formazan crystals. The absorbance was recorded by microplate reader apparatus (Biotek, Winooski, VT, United States) at 570 nm. The assay was performed in three independent experiments and triplicate.

| Structure (SMILES) | viability at 24 h [%] |
| --- | --- |
| Nc1c(-c2cc[n+](Cc3ccccc3)cc2)oc2ccccc12 [5a, 4-(3-Aminobenzofuran-2-yl)-1-benzylpyridin-1-ium chloride] | 85.9 ± 1.5 |
| Nc1c(-c2cc[n+](Cc3ccccc3F)cc2)oc2ccccc12.[Cl-] [5f, 4-(3-Aminobenzofuran-2-yl)-1-(2-fluorobenzyl) pyridin-1-ium chloride] | 86.4 ± 2.6 |
| Nc1c(-c2cc[n+](Cc3ccc(F)cc3)cc2)oc2ccccc12.[Cl-] [5h, 4-(3-Aminobenzofuran-2-yl)-1-(4-fluorobenzyl) pyridin-1-ium chloride] | 88.2 ± 2.4 |
| Nc1c(-c2cc[n+](Cc3ccccc3Cl)cc2)oc2ccccc12 [5i, 4-(3-Aminobenzofuran-2-yl)-1-(2-chlorobenzyl) pyridin-1-ium chloride] | 90.2 ± 4.1 |
| Nc1c(-c2cc[n+](Cc3ccccc3Br)cc2)oc2ccccc12 [5l, 4-(3-Aminobenzofuran-2-yl)-1-(2-bromobenzyl) pyridin-1-ium chloride] | 87.1 ± 2.9 |

target: T4, AChE from E. electricus (Electrophorus electricus, UniProt O42275); assay: biochemical; conditions: not given
T4 construct: purchased Sigma Aldrich
T4 sequence (O42275 24-633): as the sequence (O42275 24-633) above

| Structure (SMILES) | IC50 [µM] |
| --- | --- |
| Nc1c(-c2cc[n+](Cc3ccccc3)cc2)oc2ccccc12 [5a, 4-(3-Aminobenzofuran-2-yl)-1-benzylpyridin-1-ium chloride] | 0.81 ± 0.02 |
| Nc1c(-c2cc[n+](Cc3ccccc3F)cc2)oc2ccccc12.[Cl-] [5f, 4-(3-Aminobenzofuran-2-yl)-1-(2-fluorobenzyl) pyridin-1-ium chloride] | 0.64 ± 0.04 |
| Nc1c(-c2cc[n+](Cc3ccc(F)cc3)cc2)oc2ccccc12.[Cl-] [5h, 4-(3-Aminobenzofuran-2-yl)-1-(4-fluorobenzyl) pyridin-1-ium chloride] | 0.88 ± 0.04 |
| Nc1c(-c2cc[n+](Cc3ccccc3Cl)cc2)oc2ccccc12 [5i, 4-(3-Aminobenzofuran-2-yl)-1-(2-chlorobenzyl) pyridin-1-ium chloride] | 0.7 ± 0.01 |
| Nc1c(-c2cc[n+](Cc3ccccc3Br)cc2)oc2ccccc12 [5l, 4-(3-Aminobenzofuran-2-yl)-1-(2-bromobenzyl) pyridin-1-ium chloride] | 1.34 ± 0.01 |

same assay, conditions: Ellman's method, 25°C, mean ± SEM of three experiments; read-out: IC50 (μM) AChE

| Structure (SMILES) | IC50 [µM] |
| --- | --- |
| Cc1ccccc1C[n+]1ccc(-c2oc3ccccc3c2N)cc1 [5b, 4-(3-Aminobenzofuran-2-yl)-1-(2-methylbenzyl) pyridin-1-ium chloride] | 3.29 ± 0.01 |
| Cc1cccc(C[n+]2ccc(-c3oc4ccccc4c3N)cc2)c1 [5c, 4-(3-Aminobenzofuran-2-yl)-1-(3-methylbenzyl) pyridin-1-ium chloride] | 3.32 ± 0.04 |
| Cc1ccc(C[n+]2ccc(-c3oc4ccccc4c3N)cc2)cc1 [5d, 4-(3-Aminobenzofuran-2-yl)-1-(4-methylbenzyl) pyridin-1-ium chloride] | 29.3 ± 0.82 |
| COc1cccc(C[n+]2ccc(-c3oc4ccccc4c3N)cc2)c1 [5e, 4-(3-Aminobenzofuran-2-yl)-1-(3-methoxybenzyl) pyridin-1-ium chloride] | 81.1 ± 1.61 |
| Nc1c(-c2cc[n+](Cc3cccc(F)c3)cc2)oc2ccccc12 [5g, 4-(3-Aminobenzofuran-2-yl)-1-(3-fluorobenzyl) pyridin-1-ium chloride] | 1.68 ± 0.02 |
| Nc1c(-c2cc[n+](Cc3cccc(Cl)c3)cc2)oc2ccccc12 [5j, 4-(3-Aminobenzofuran-2-yl)-1-(3-chlorobenzyl) pyridin-1-ium chloride] | 2.99 ± 0.03 |
| Nc1c(-c2cc[n+](Cc3ccc(Cl)cc3)cc2)oc2ccccc12 [5k, 4-(3-Aminobenzofuran-2-yl)-1-(4-chlorobenzyl) pyridin-1-ium chloride] | 16.6 ± 0.52 |
| Nc1c(-c2cc[n+](Cc3cccc(Br)c3)cc2)oc2ccccc12 [5m, 4-(3-Aminobenzofuran-2-yl)-1-(3-bromobenzyl) pyridin-1-ium chloride] | 4.47 ± 0.02 |
| Nc1c(-c2cc[n+](Cc3ccc(Br)cc3)cc2)oc2ccccc12 [5n, 4-(3-Aminobenzofuran-2-yl)-1-(4-bromobenzyl) pyridin-1-ium chloride] | 15.8 ± 0.91 |
| Nc1c(-c2cc[n+](Cc3ccccc3[N+](=O)[O-])cc2)oc2ccccc12 [5o, 4-(3-Aminobenzofuran-2-yl)-1-(2-nitrobenzyl) pyridin-1-ium chloride] | 7.84 ± 0.05 |
| Nc1c(-c2cc[n+](Cc3ccc([N+](=O)[O-])cc3)cc2)oc2ccccc12 [5p, 4-(3-Aminobenzofuran-2-yl)-1-(4-nitrobenzyl) pyridin-1-ium chloride] | 20.6 ± 0.8 |

Source: paper PMC9395670 (Frontiers in Chemistry, 2022)
